# Measured values as given in patent publication US20210400977A1, “META-DIAMIDE COMPOUNDS FOR CONTROLLING INVERTEBRATE PESTS” (FMC Corporation, priority 2018, published 2021).
# Legend:
# [1] = system: cotton melon aphid (Aphis gossypii (Glover)); experiment: Test F: control of cotton melon aphid through contact and/or systemic means; format: in vivo; details: 144 h, assessed after 6 days; for mortality at 50 ppm: sprayed at 50 ppm; for mortality at 250 ppm: sprayed at 250 ppm
# [2] = system: potato leafhopper (Empoasca fabae (Harris)); experiment: Test D: control of potato leafhopper through contact and/or systemic means; format: in vivo; details: 144 h, assessed after 6 days; for mortality at 50 ppm: sprayed at 50 ppm; for mortality at 250 ppm: sprayed at 250 ppm
# Method: (§1) Test compounds were formulated using a solution containing 10% acetone, 90% water and 300 ppm Activator 90® non-ionic surfactant (Loveland Products, Loveland, Colo., USA). The formulated compounds were applied in 1 mL of liquid through an atomizer nozzle positioned 1.27 cm (0.5 inches) above the top of each test unit. Test compounds were sprayed at the rates indicated, and each test was replicated three times.
# For evaluating control of potato leafhopper (Empoasca fabae (Harris)) through contact and/or systemic means, the test unit consisted of a small open container with a 5-6-day-old Soleil bean plant (primary leaves emerged) inside. White sand was added to the top of the soil, and one of the primary leaves was excised prior to application of the test compound.
# Test compounds were formulated and sprayed at 250 and/or 50 ppm. After spraying of the formulated test compound, the test units were allowed to dry for 1 hour before they were post-infested with 5 potato leafhoppers (18-to-21-day-old adults). A black, screened cap was placed on the top of the test unit, and the test units were held for 6 days in a growth chamber at 20° C. and 70% relative humidity. Each test unit was then visually assessed for insect mortality.
# [3] = system: green peach aphid (Myzus persicae (Sulzer)); experiment: Test E: control of green peach aphid through contact and/or systemic means; format: in vivo; details: 144 h, assessed after 6 days; for mortality at 50 ppm: sprayed at 50 ppm; for mortality at 250 ppm: sprayed at 250 ppm
# Method: as §1
# For evaluating control of green peach aphid (Myzus persicae (Sulzer)) through contact and/or systemic means, the test unit consisted of a small open container with a 12-15-day-old radish plant inside. This was pre-infested by placing on a leaf of the test plant 30-40 aphids on a piece of leaf excised from a culture plant (cut-leaf method). The aphids moved onto the test plant as the leaf piece desiccated. After pre-infestation, the soil of the test unit was covered with a layer of sand.
# Test compounds were formulated and sprayed at 250 and/or 50 ppm. After spraying of the formulated test compound, each test unit was allowed to dry for 1 hour and then a black, screened cap was placed on top. The test units were held for 6 days in a growth chamber at 19-21° C. and 50-70% relative humidity. Each test unit was then visually assessed for insect mortality.
# [4] = system: sweetpotato whitefly (Bemisia tabaci (Gennadius)); experiment: Test G: control of sweetpotato whitefly through contact and/or systemic means; format: in vivo; details: 312 h, assessed after 13 days; for mortality at 50 ppm: sprayed at 50 ppm; for mortality at 250 ppm: sprayed at 250 ppm
# Method: as §1
# For evaluating control of the sweetpotato whitefly (Bemisia tabaci (Gennadius)) through contact and/or systemic means, the test unit consisted of a small open container with a 12-14-day-old cotton plant or 7-9-day-old soybean plant inside. Prior to the spray application, both cotyledons were removed from the plant, leaving one true leaf for the assay. Adult whiteflies were allowed to lay eggs on the plant and then were removed from the test unit. Cotton or soybean plants infested with at least 15 eggs were submitted to the test for spraying.
# Test compounds were formulated and sprayed at 250 and/or 50 ppm. After spraying, the test units were allowed to dry for 1 hour. The cylinders were then removed, and the units were taken to a growth chamber and held for 13 days at 28° C. and 50-70% relative humidity. Each test unit was then visually assessed for insect mortality.
melting point [°C],SMILES,mortality at 50 ppm [1] [%],mortality at 250 ppm [1] [%],mortality at 50 ppm [2] [%],mortality at 250 ppm [2] [%],mortality at 50 ppm [3] [%],mortality at 250 ppm [3] [%],mortality at 50 ppm [4] [%],mortality at 250 ppm [4] [%]
,"O=C(Nc1ccc(Cl)c(CNC(=O)C(F)(F)F)c1)C1C(c2ccc(F)c(Cl)c2)C1(Cl)Cl (stereo not drawn) [Compound 19, 2,2-dichloro-3-(3-chloro-4-fluorophenyl)-N-[4-chloro-3-[[(2,2,2-trifluoroacetyl)amino]methyl]phenyl]cyclopropanecarboxamide]",≥ 80,≥ 80,≥ 80,≥ 80,≥ 80,≥ 80,≥ 70,≥ 70
151 to 155,CN(Cc1cc(NC(=O)C2C(c3cc(Cl)cc(Cl)c3)C2(F)F)ccc1Cl)C(=O)C1CC1 (stereo not drawn) [Compound 32],,,,,,,,
,"O=C(NCc1cc(NC(=O)C2C(c3ccc(F)c(C(F)(F)F)c3)C2(Cl)Cl)ccc1Cl)C1CC1 (stereo not drawn) [Compound 39, 2,2-dichloro-N-[4-chloro-3-[[(cyclopropylcarbonyl)amino]methyl]phenyl]-3-[4-fluoro-3-(trifluoromethyl)phenyl]cyclopropanecarboxamide]",≥ 80,≥ 80,≥ 80,≥ 80,≥ 80,≥ 80,≥ 70,≥ 70
,CC(=O)NCc1cc(NC(=O)C2C(c3cc(Cl)cc(Cl)c3)C2(F)F)ccc1Cl (stereo not drawn) [Compound 47],≥ 80,≥ 80,≥ 80,≥ 80,,≥ 80,,
,O=C(NCc1cc(NC(=O)C2C(c3cc(Cl)cc(Cl)c3)C2(F)F)ccc1Cl)C1CC1 (stereo not drawn) [Compound 48],,≥ 80,≥ 80,≥ 80,,,,
,"CCC(=O)NCc1cc(NC(=O)C2C(c3cc(Cl)cc(Cl)c3)C2(Cl)Cl)ccc1F (stereo not drawn) [Compound 55, 2,2-dichloro-3-(3,5-dichlorophenyl)-N-[4-fluoro-3-[(propanoylamino)methyl]phenyl]cyclopropane-1-carboxamide]",≥ 80,≥ 80,≥ 80,≥ 80,≥ 80,≥ 80,,
,"O=C(NCc1cc(NC(=O)C2C(c3cc(Cl)cc(Cl)c3)C2(Cl)Cl)ccc1Cl)C1CC1 (stereo not drawn) [Compound 62, 2,2-dichloro-N-[4-chloro-3-[(cyclopropanecarbonylamino)methyl]phenyl]-3-(3,5-dichlorophenyl)cyclopropane-1-carboxamide]",≥ 80,≥ 80,≥ 80,≥ 80,≥ 80,≥ 80,,≥ 70
,"O=C(NCc1cc(NC(=O)C2C(c3ccc(F)c(C(F)(F)F)c3)C2(Cl)Cl)ccc1F)C1CC1 (stereo not drawn) [Compound 77, 2,2-dichloro-N-[3-[[(cyclopropylcarbonyl)amino]methyl]-4-fluorophenyl]-3-[4-fluoro-3-(trifluoromethyl)phenyl]cyclopropanecarboxamide]",≥ 80,,≥ 80,,≥ 80,,≥ 70,≥ 70
,"O=C(CC(F)(F)F)NCc1cc(NC(=O)C2C(c3ccc(F)c(C(F)(F)F)c3)C2(Cl)Cl)ccc1F (stereo not drawn) [Compound 78, 2,2-dichloro-3-[4-fluoro-3-(trifuoromethyl)phenyl]-N-[4-fluoro-3-[[(3,3,3-trifluoro-1-oxopropyl)amino]methyl]phenyl]cyclopropanecarboxamide]",≥ 80,,≥ 80,,≥ 80,,≥ 70,
,"O=C(CC(F)(F)F)NCc1cc(NC(=O)C2C(c3ccc(Cl)c(Cl)c3)C2(Cl)Cl)ccc1F (stereo not drawn) [Compound 79, 2,2-dichloro-3-(3,4-dichlorophenyl)-N-[4-fluoro-3-[[(3,3,3-trifluoro-1-oxopropyl)amino]methyl]phenyl]cyclopropanecarboxa-mide]",≥ 80,,≥ 80,,,,,≥ 70
,CCC(=O)NC(C)c1cc(NC(=O)C2C(c3cc(Cl)cc(Cl)c3)C2(Cl)Cl)ccc1Cl (stereo not drawn) [Compound 86],,,≥ 80,,,,,
,CC(NC(=O)C1CC1)c1cc(NC(=O)C2C(c3cc(Cl)cc(Cl)c3)C2(Cl)Cl)ccc1Cl (stereo not drawn) [Compound 87],,,≥ 80,,,,,
,"O=C(CC(F)(F)F)NCc1cc(NC(=O)C2C(c3ccc(F)c(C(F)(F)F)c3)C2(Cl)Cl)ccc1Cl (stereo not drawn) [Compound 116, 2,2-dichloro-N-[4-chloro-3-[[(3,3,3-trifluoro-1-oxopropyl)amino]methyl]phenyl]-3-[4-fluoro-3-(trifluoromethyl)phenyl]cyclopropanecarboxamide]",,,≥ 80,,,,,
,"O=C(CC(F)(F)F)NCc1cc(NC(=O)C2C(c3cc(F)c(F)c(F)c3)C2(Cl)Cl)ccc1Cl (stereo not drawn) [Compound 118, 2,2-dichloro-N-[4-chloro-3-[[(3,3,3-trifluoro-1-oxopropyl)amino]methyl]phenyl]-3-(3,4,5-trifluorophenyl)cyclopropanecarboxamide]",,,≥ 80,,,,,≥ 70
,"O=C(CC(F)(F)F)NCc1cc(NC(=O)C2C(c3cc(F)cc(Cl)c3)C2(Cl)Cl)ccc1F (stereo not drawn) [Compound 129, 2,2-dichloro-3-(3-chloro-5-fluorophenyl)-N-[4-fluoro-3-[[(3,3,3-trifluoro-1-oxopropyl)amino]methyl]phenyl]cyclopropanecarboxamide]",≥ 80,,≥ 80,,≥ 80,,≥ 70,≥ 70
101 to 105,CC(=O)NCc1ccc(Cl)c(NC(=O)C2C(c3cc(Cl)cc(Cl)c3)C2(Cl)Cl)c1 (stereo not drawn) [Compound 135],,,,,,,,
,CCC(=O)NCc1cc(NC(=O)C2C(c3cc(Cl)cc(Cl)c3)C2(Cl)Cl)ccc1Cl (stereo not drawn) [Compound 147],≥ 80,≥ 80,≥ 80,≥ 80,≥ 80,≥ 80,≥ 70,≥ 70
,O=C(NCc1cc(NC(=O)C2C(c3cc(Cl)cc(Cl)c3)C2(Cl)Cl)ccc1Cl)C1CC1 (stereo not drawn) [Compound 148],,,,,,,≥ 70,
,"O=C(NCc1c(F)ccc(NC(=O)C2C(c3ccc(F)c(Cl)c3)C2(Cl)Cl)c1F)C1CC1 (stereo not drawn) [Compound 164, 2,2-dichloro-3-(3-chloro-4-fluorophenyl)-N-[3-[[(cyclopropylcarbonyl)amino]methyl]-2,4-difluorophenyl]cyclopropanecarboxamide]",,,≥ 80,,,,,
,"O=C(CC(F)(F)F)NCc1cc(NC(=O)C2C(c3cc(F)c(Cl)c(F)c3)C2(Cl)Cl)ccc1F (stereo not drawn) [Compound 169, 2,2-dichloro-3-(4-chloro-3,5-difluorophenyl)-N-[4-fluoro-3-[[(3,3,3-trifluoro-1-oxopropyl)amino]methyl]phenyl]cyclopropanecarboxamide]",≥ 80,,≥ 80,,≥ 80,,,
,"O=C(CC(F)(F)F)NCc1c(F)ccc(NC(=O)C2C(c3ccc(F)c(Cl)c3)C2(Cl)Cl)c1F (stereo not drawn) [Compound 170, 2,2-dichloro-3-(3-chloro-4-fluorophenyl)-N-[2,4-difluoro-3-[[(3,3,3-trifluoro-1-oxopropyl)amino]methyl]phenyl]cyclopropanecarboxamide]",≥ 80,,≥ 80,,≥ 80,,,
,"O=C(Nc1ccc(Cl)c(CNC(=O)C(F)(F)F)c1)C1C(c2ccc(F)c(C(F)(F)F)c2)C1(Cl)Cl (stereo not drawn) [Compound 174, 2,2-dichloro-N-[4-chloro-3-[[(2,2,2-trifluoroacetyl)amino]methyl]phenyl]-3-[4-fluoro-3-(trifluoromethyl)phenyl]cyclopropanecarboxamide]",≥ 80,,≥ 80,,≥ 80,,,≥ 70
,"O=C(Nc1ccc(Cl)c(CNC(=O)C(F)(F)F)c1)C1C(c2ccc(Cl)c(Cl)c2)C1(Cl)Cl (stereo not drawn) [Compound 175, 2,2-dichloro-N-[4-chloro-3-[[(2,2,2-trifluoroacetyl)amino]methyl]phenyl]-3-(3,4-dichlorophenyl)cyclopropanecarboxamide]",≥ 80,,≥ 80,,≥ 80,,,
